Data from patent US20190053489A1, “ANTIMICROBIAL COMPOSITION” (NATIONAL UNIVERSITY CORPORATION TOKYO MEDICAL AND DENTAL …, priority 2016, published 2019).

What was measured:
[1] = system: MRSA; test: Observation of morphological change in MRSA by electron microscope; format: cell-based, Methicillin-Resistant Staphylococcus Aureus (MRSA); conditions: complex 0.1% by mass, lysozyme 0.05%, chitosan 0.05%, mixture each 0.05%; FIG. 16
Procedure: First, the morphological change in MRSA was observed by using a scanning electron microscope. This observation with a scanning electron microscope was carried out as follows: osmium coating (4 nm) was performed as the conductive treatment, and a low-acceleration ultra-high resolution scanning electron microscope (SU 9000 manufactured by Hitachi High-Technologies Corporation (accelerating voltage: 1 kV)) was used. In addition, the samples were MRSA added with physiological saline and MRSA added with a lysozyme-chitosan complex with a concentration of 0.2% by mass.
(§1) Next, the morphological change in MRSA was observed by using a transmission electron microscope. This observation with a transmission electron microscope was carried out as follows: the sample was sliced in 50 nm with a diamond knife as the pretreatment and was stained with uranium acetate and lead citrate, and a transmission electron microscope (JEM-1400 manufactured by JEOL Ltd.) was used. In addition, the samples were MRSA added with physiological saline and MRSA added with a lysozyme-chitosan complex with a concentration of 0.2% by mass.
(§2) Observation was carried out with a scanning electron microscope for the morphological changes in MRSA and pseudomonas aeruginosa treated with the lysozyme-chitosan complex, lysozyme alone, chitosan alone, and the mixture of lysozyme and chitosan (treatment time: 2 hours). This observation with a scanning electron microscope was carried out in the same manner as Example 8 described above: osmium coating (4 nm) was performed as the conductive treatment, and a low-acceleration ultra-high resolution scanning electron microscope (SU 9000 manufactured by Hitachi High-Technologies Corporation (accelerating voltage: 1 kV)) was used. In addition, the samples were MRSA or pseudomonas aeruginosa added with physiological saline, a lysozyme-chitosan complex with a concentration of 0.1% by mass, lysozyme of 0.05% by mass, chitosan of 0.05% by mass, and a mixture of lysozyme and chitosan, each with 0.05% by mass.

[2] = system: pseudomonas aeruginosa; test: Observation of morphological change in pseudomonas aeruginosa by electron microscope; format: cell-based; conditions: complex 0.1% by mass, lysozyme 0.05%, chitosan 0.05%, mixture each 0.05%; FIG. 17
Procedure: as §1
Note that the morphological change in the case of adding the lysozyme-chitosan complex to pseudomonas aeruginosa was also observed using a transmission electron microscope in the same manner as above. […] In other words, the lysozyme-chitosan complex also has a resistant microbe inactivation effect for pseudomonas aeruginosa.
as §2

[3] = system: MRSA IID 1677; test: Proliferation suppression against MRSA in a standard medium (colony count method); format: cell-based, Methicillin-Resistant Staphylococcus Aureus (MRSA); conditions: standard TSB medium with phosphate buffer pH 7.0; complex 0.2%, lysozyme, chitosan, each of mixture 0.1%; FIG. 7
Procedure: (§3) This test employed MRSA IID 1677, and this microbe strain was inoculated in 20 ml of a normal broth medium (manufactured by Eiken Chemical Co., Ltd., ‘Eiken’) for overnight shake culture at 37° C. The cultured microbial solution was collected by centrifugation (3000 rpm, 10 minutes), suspended with sterilized water, and then diluted with sterilized water so that the optical density would satisfy OD600=1.0. The resultant was diluted 2000 times (corresponding to 10^6 CFU/ml) to prepare a reaction microbial solution.
Here, the TSB test medium samples were prepared using 10 ml of TSB medium (BD BBL™) added with 200 μl of 1 M phosphate buffer (pH 7.0), followed by further addition of
(1) 10 ml of sterilized water, ([…]), (3) 10 ml of lysozyme alone with a concentration of 0.2% (the concentration after addition was 0.1%), (4) 10 ml of chitosan alone with a concentration of 0.2% (the concentration after addition was 0.1%), and (5) 10 ml of the mixture of lysozyme and chitosan with a concentration of 0.2% (the concentration of each after addition was 0.1%).
After that, 100 μl was extracted and seeded on the MH agar medium, and the number of colonies produced was observed (colony count method). […] Note that the results of FIG. 7 are each the average value of the values obtained by carrying out the colony count method three times.
Note that the results of FIG. 8 are each the average value obtained with two replicate samples.

[4] = system: MRSA IID 1677; test: Proliferation suppression against MRSA in a diluted medium (OD600); format: cell-based, Methicillin-Resistant Staphylococcus Aureus (MRSA); conditions: diluted 1/2.5 LB medium, 37° C., OD 600 nm; complex 0.001%, lysozyme, chitosan and each of mixture 0.0005%; FIG. 1
Procedure: as §3, with “cultured” for “inoculated”, “in” for “in 20 ml of”, “medium” for “medium (manufactured by Eiken Chemical Co., Ltd., ‘Eiken’) for overnight shake culture”, “C. for 20 hours.” for “C.”
Each of the LB test medium samples was added with 100 μl of reaction microbial solution and was shake cultured under the condition of 37° C. for 48 hours. Here, the LB test medium samples were prepared using 10 ml of 1/2.5 LB medium added with
(1) 10 ml of sterilized water, (2) 10 ml of the lysozyme-chitosan complex with a concentration of 0.002% (the concentration after addition was 0.001%), (3) 10 ml of lysozyme alone with a concentration of 0.001% (the concentration after addition was 0.0005%), (4) 10 ml of chitosan alone with a concentration of 0.001% (the concentration after addition was 0.0005%), and (5) 10 ml of the mixture of lysozyme and chitosan with a concentration of 0.001% (the concentration of each after addition was 0.0005%).
After that, 3 ml was extracted at time intervals (0, 1, and 2 days), and the optical density was measured at an absorption wavelength of 600 nm. […]

[5] = system: Micrococcus luteus bacteria; test: Heat resistance evaluation by bacteriolytic test; format: physicochemical; conditions: 80° C. for 2 hours; ΔOD at 10 minutes with vs without heating; complex 5%, lysozyme 2.5% aqueous solution; FIG. 6(D)
Procedure: This test is a bacteriolytic test using Micrococcus luteus bacteria being lysozyme-sensitive bacteria. Note that the bacteriolytic activity is an activity specific to lysozyme. Lysozyme is a protein relatively stable against heat. However, it is known that this activity generally decreases considerably for lysozyme heated at 80° C. for 30 minutes.
This test employed an aqueous solution of the lysozyme-chitosan complex with a concentration of 5%, an aqueous solution of lysozyme with a concentration of 2.5%, and an aqueous solution of the mixture of lysozyme and chitosan with a concentration of […]. In addition, Micrococcus luteus bacteria manufactured by Wako Pure Chemical Industries, Ltd. were used as the use bacteria.
First, 1 g of Micrococcus luteus bacteria was weighed on the day before the test, added to 100 ml of physiological saline, and stirred overnight at 4° C. […]
In an optical density meter, 2800 μl of the test microbial solution was set to record OD (0-1) immediately before the addition of the sample. […] Since OD increased here, the highest value OD (0-2) was recorded.
Timer measurement was started after the addition of the sample to record OD at the time of 2, 4, 6, 8, and 10 minutes passed. Each test was carried out twice, and the average was calculated.
With OD for (0-2) being OD at the time of the start, Δoptical density (AOD) at each point was calculated. […]

[6] = system: MRSA; conditions: reported by AOKI and KASHIWAGI; cited from earlier work

| Compound | morphological change in MRSA, scanning electron microscope, treatment time 2 hours [1] | morphological change in pseudomonas aeruginosa, scanning electron microscope, treatment time 2 hours [2] | proliferation suppression effect against MRSA (ratio of colonies produced 6 hours later to control) [3] | proliferation suppression effect against MRSA for 48 hours [4] | residual activity (bacteriolytic) after heating treatment [5] | generation at which a resistant microbe is observed to produce [6] |
| --- | --- | --- | --- | --- | --- | --- |
| lysozyme [lysozyme alone, reference compound] | no significant morphological change was observed | no significant morphological change was observed | almost no proliferation suppression effect | observed to some extent | 73.3% |  |
| gentamicin |  |  |  |  |  | third generation |
| CN(C)c1ccc(O)c2c1C[C@H]1C[C@H]3[C@H](N(C)C)C(O)=C(C(N)=O)C(=O)[C@@]3(O)C(O)=C1C2=O [minomycin] |  |  |  |  |  | sixth generation |
